Like-named read-outs stand apart in the source and are kept apart here.
Legend:
[1] = target: T1, CRBN-DDB1 (CRBN_DDB1.3) (Homo sapiens, UniProt Q96SW2); assay: Fluorescence polarization (FP) binding assay, CRBN_DDB1.3 construct; details: for Kd: 0.05% PA, 0.1% BSA, read-out: FP CRBN_DDB1.3 0.05% PA, 0.1% BSA ka nM
Method: (§1) Example 2: Fluorescence Polarization (FP) Assay for Screening Compound Ligand Binders of CRBN-DDB1
(§2) Measuring compound ligand binding to CRBN-DDB 1 was carried out using an established sensitive and quantitative in vitro fluorescence polarization (FP) based binding assay. (See, I. J. Enyedy et al, J. Med. Chem., 44: […] [2001]). Compounds were dispensed from serially diluted DMSO stock into black 384-well compatible fluorescence polarization plates using an Echo acoustic dispenser. Compound binding to CRBN-DDB 1 was measured by displacement of an established CRBN binding ligand conjugated to an Alexa Fluor® dye (probe). A […] mixture containing 10nM CRBN-DDB1 and 5 nM probe in 50 mM Hepes, pH 7.4, 200 mM NaCl, 1% DMSO, 0.1% BSA and 0.05% o pluronic acid-127 acid was added to wells containing compound and incubated at room temperature for 60 min. Matching control wells excluding CRBN-DDB 1 were used to correct for background fluorescence. Plates were read on an Envision plate reader with appropriate FP filter sets. The corrected S (perpendicular) and P (parallel) values were used to calculate fluorescence polarization (FP) with the following equation: FP=1000*(S−G*P)/(S+G*P).
(§3) The fractional amount of bound probe (FB) to CRBN-DDB 1 as a function of compound concentration was fitted according to Wang; FEBS Letters 360, (1995), 111-114 to obtain fits for parameter offsets and binding constant (KA) of competitor compound.

[2] = target: CRBN-DDB1 (CRBN_DDB1.7) (Homo sapiens, UniProt Q96SW2); assay: Fluorescence polarization (FP) binding assay, CRBN_DDB1.7 construct; details: 0.05% PA, 0.1% BSA, read-out: FP CRBN_DDB1.7 0.05% PA, 0.1% BSA ka nM
Sequence of CRBN-DDB1 (CRBN_DDB1.7) (Q96SW2 81-442 limits assumed): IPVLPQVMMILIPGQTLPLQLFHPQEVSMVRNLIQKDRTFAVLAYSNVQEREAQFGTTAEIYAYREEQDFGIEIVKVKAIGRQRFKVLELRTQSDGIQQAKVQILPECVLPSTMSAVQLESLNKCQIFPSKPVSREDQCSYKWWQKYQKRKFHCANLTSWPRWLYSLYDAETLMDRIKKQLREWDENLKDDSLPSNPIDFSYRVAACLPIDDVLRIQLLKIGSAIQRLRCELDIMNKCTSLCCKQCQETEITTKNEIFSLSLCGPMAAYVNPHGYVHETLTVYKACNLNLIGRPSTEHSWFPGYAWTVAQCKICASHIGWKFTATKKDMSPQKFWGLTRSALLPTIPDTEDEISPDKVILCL
Method: as §1, §2, §3

[3] = target: T2, BRD4 (Homo sapiens, UniProt O60885); assay: BRD4 HiBiT degradation assay in 293T.92 (BRD4-HiBiT) cells; assay type: cell-based; details: 293T.92 cells, 24.0 hours
T2 construct: endogenously expressing BRD4 with HiBiT fusion tag via CRISPR; endogenous in cells; host or cells: 293T.92 (BRD4-HiBiT) cells, a CRISPR knock-in made from 293T
From the text: Example 3: BRD4 HiBiT Method
Dulbecco's modified Eagle medium (DMEM) without phenol red and fetal bovine serum (FBS) were purchased from Gibco (Grand Island, NY, USA). Nano-Glo® HiBiT Lytic Assay System was purchased from Promega (Madison, WI, USA). 293T.92 (BRD4-HiBiT) cell line, endogenously expressing BRD4 with HiBiT fusion tag via CRISPR was made internally from the 293T human cell line acquired from American Type Culture Collection (Rockville, MD, USA). Cell culture flasks and 384-well microplates were acquired from VWR (Radnor, PA, USA) or Corning (Corning, NY, USA).
BRD4 degradation was determined based on quantification of luminescent signal using Nano-Glo® HiBiT Lytic Assay kit. Test compounds were added to the 384-well plate from a top concentration of […] with 11 points, half log titration in duplicates. 293T.92 cells were added into 384-well plates at a cell density of 15000 cells per well. The plates were kept at 37° C. with 5% CO2 for […]. The cells treated in the absence of the test compound were the negative control and the cells without Nano-Glo® HiBiT Lytic reagent were the positive control. After 24-hour incubation, Nano-Glo® HiBiT Lytic Assay reagents were added to the cells. Luminescence was acquired on EnVision™ Multilabel Reader (PerkinElmer, Santa Clara, CA, USA).

[4] = target: T1, CRBN-DDB1 (CRBN_DDB1.3); assay: Fluorescence polarization (FP) binding assay, CRBN_DDB1.3 construct; details: 0.05% PA (no BSA); benzomorpholine binders; read-out: FP CRBN_DDB1.3 0.05% PA Ka

T1 sequence (Q96SW2 318-426 limits assumed): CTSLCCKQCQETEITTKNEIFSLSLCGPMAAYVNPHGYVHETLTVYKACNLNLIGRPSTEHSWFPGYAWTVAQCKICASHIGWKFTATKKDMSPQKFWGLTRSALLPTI

Kd ([1]; indoline binders)	Kd ([2]; indoline binders)	Structure (SMILES)	other results
< 100000 nM	< 100000 nM	CN(C(=O)OC(C)(C)C)[C@H]1CC[C@H](c2c(F)ccc3c2CCN3C2CCC(=O)NC2=O)CC1 (single isomer, unassigned) [Compound 46-9a, tert-butyl ((1r,4r)-4-(1-(2,6-dioxopiperidin-3-yl)-5-fluoroindolin-4-yl)cyclohexyl)(methyl)carbamate]	
< 100000 nM	< 1000 nM	O=C1CC[C@@H](N2CCc3c(N4CCC5(CC4)OCCO5)cccc32)C(=O)N1 (single isomer, unassigned) [Compound 45-4]	
< 1000 nM	< 100000 nM	O=C1CC[C@H](N2CCc3c(N4CCC5(CC4)OCCO5)cccc32)C(=O)N1 (single isomer, unassigned) [Compound 45-3]	
		COC(=O)N1c2ccc3c(nc(Cc4ccccc4)n3[C@H]3CCC[C@H](C(=O)N4CCC(c5ccc6c(c5)OCCN6C5CCC(=O)NC5=O)CC4)C3)c2CC[C@@H]1C (stereo partly drawn) [Compound 32-14, methyl (7S)-2-benzyl-7-methyl-3-[(1S,3S)-3-[4-[4-(2,6-dioxo-3-piperidyl)-2,3-dihydro-1,4-benzoxazin-7-yl]piperidine-i-carbonyl]cyclohexyl]-8,9-dihydro-7H-imidazo[4,5-f]quinoline-6-carboxylate]	DC50 [3]: < 1 µM; Emax [3]: < 30%
< 100000 nM	< 100000 nM	CN(C(=O)OC(C)(C)C)[C@H]1CC[C@@H](c2c(F)ccc3c2CCN3C2CCC(=O)NC2=O)CC1 (single isomer, unassigned) [Compound 46-9b, tert-butyl ((1s,4s)-4-(1-(2,6-dioxopiperidin-3-yl)-5-fluoroindolin-4-yl)cyclohexyl)(methyl)carbamate]	
< 100000 nM	< 100000 nM	CC(C)(C)OC(=O)N1CCC(c2c(F)ccc3c2CCN3[C@H]2CCC(=O)NC2=O)CC1 (single isomer, unassigned) [Compound 49-6]	
		CC(C)(C)OC(=O)N1CCC(c2cccc3c2CCCN3[C@H]2CCC(=O)NC2=O)CC1 (single isomer, unassigned) [Compound 59-6]	Kd ([1]; tetrahydroquinoline binders): < 100000 nM; Kd ([2]; tetrahydroquinoline binders): < 100000 nM
< 100000 nM	< 100000 nM	CC(C)(C)OC(=O)N1CCC(c2c(F)ccc3c2CCN3[C@@H]2CCC(=O)NC2=O)CC1 (single isomer, unassigned) [Compound 49-7]	
< 100000 nM	< 100000 nM	CN(C(=O)OC(C)(C)C)C1CCN(c2cccc3c2CCN3C2CCC(=O)NC2=O)CC1 (racemic) [Compound 34-5, tert-butyl (1-(1-(2,6-dioxopiperidin-3-yl)indolin-4-yl)piperidin-4-yl)(methyl)carbamate]	
		O=C1CCC(N2CCOc3c(C4CCNCC4)cccc32)C(=O)N1 (stereo not drawn) [Compound 9-11, 3-[8-(4-piperidyl)-2,3-dihydro-1,4-benzoxazin-4-yl]piperidine-2,6-dione]	Kd [4]: ≤ 100 µM
< 1000 nM	< 1000 nM	O=C1CC[C@@H](N2CCc3c(N4CCC(CCO)CC4)cccc32)C(=O)N1 (single isomer, unassigned) [Compound 42-6]	
< 100000 nM	< 100000 nM	CC(C)(C)OC(=O)N1CCC(c2c(F)cc3c(c2F)CCN3[C@@H]2CCC(=O)NC2=O)CC1 (single isomer, unassigned) [Compound 50-9]	
< 100000 nM	< 100000 nM	CC(C)(C)OC(=O)N1CCC(c2c(F)cc3c(c2F)CCN3[C@H]2CCC(=O)NC2=O)CC1 (single isomer, unassigned) [Compound 50-8]	
		CC(C)(C)OC(=O)N1CCC(c2cccc3c2CCCN3[C@@H]2CCC(=O)NC2=O)CC1 (single isomer, unassigned) [Compound 59-5]	Kd ([1]; tetrahydroquinoline binders): < 100000 nM; Kd ([2]; tetrahydroquinoline binders): < 100000 nM
< 100000 nM	< 100000 nM	CC(C)(C)OC(=O)N1CCC(c2ccc3c(c2F)CCN3[C@H]2CCC(=O)NC2=O)CC1 (single isomer, unassigned) [Compound 47-6]	
		CC(C)(C)OC(=O)N1CCC(c2cccc3c2OCCN3C2CCC(=O)NC2=O)CC1 (stereo not drawn) [Compound 9-6, tert-butyl 4-[4-(2,6-dioxo-3-piperidyl)-2,3-dihydro-1,4-benzoxazin-8-yl]piperidine-1-carboxylate]	FP CRBN_DDB1.3 0.05% PA, 0.1% BSA Ka nM ([1]; benzomorpholine binders): ** (≤100 μM is **); Kd [4]: ≤ 100 µM
< 100000 nM	< 100000 nM	O=C1CC[C@H](N2CCc3c(N4CCC(CCO)CC4)cccc32)C(=O)N1 (single isomer, unassigned) [Compound 42-5]	

From patent US12421220B2, “Bicyclic-substituted glutarimide cereblon binders” (C4 THERAPEUTICS, INC., priority 2022, dated 2025)
